Data on 31 compounds can be found in patent publication US7777038B2, “Carbostyril compound” (Otsuka Pharmaceutical Co., Ltd., priority 2004, dated 2010).

Data set [1] has as its system human Trefoil Factor 2 (hTFF2) gene. Description: hTFF2 gene reporter assay (luciferase) using pGL3-hTFF2pro•pWL-neo/MKN-45 #6-2 cell line. It counts as cell-based. Particulars: test compound concentration 10^−6 M; 24 hours culture; luciferase activity as control % of dimethylsulfoxide-added wells (100%). As to the method:
Transcription promoting activity on human Trefoil Factor 2 (hTFF2) gene of test compounds was evaluated by means of an hTFF2 gene reporter assay.
(1) Preparation of hTFF2 Gene Reporter Vector pGL3-hTFF2pro
DNA was extracted from HeLa cells (CCL-2, DAINIPPON PHARMACEUTICAL CO., LTD.) using a deoxyribonucleic acid (DNA) extraction kit (DNeasy™ Tissue Kit, manufactured by QIAGEN). The hTFF2 promoter region was amplified using the extracted DNA as a template by means of the polymerase chain reaction (PCR). The oligomers 5′-[…]-3′ and 5′-[…]-3′ were selected as PCR primers to be amplified, based on the report by Beck et al. (Beck S., Sommer P., Blin N., Gott P., 5′-flanking motifs control cell-specific expression of trefoil factor genes (TFF), Int. J. Mol. Med. 2(3), 353-361 (1998)). Platinum® Pfx DNA polymerase was used as DNA polymerase. The PCR was performed under the conditions of denaturing for 30 seconds at 95° C., annealing for 30 seconds at 55° C. and extending for 75 seconds at 68° C., and the procedures were repeated for 32 cycles.
The PCR products were separated and purified by 1% agarose gel electrophoresis, and cloned to a pCR-BluntII-TOPO vector attached to a cloning kit (Zero Blunt® TOPO® PCR Cloning Kit, manufactured by Invitrogen Corporation). The produced plasmid pCR-Blunt-TFF2pro was introduced into E. coli for transformation (TOP 10 Ultracomp™ Cells, manufactured by Invitrogen Corporation), and transformant strain pCR-Blunt-TFF2pro/TOP10 was selectively cultured in LB agar medium containing 30 μg/ml of Zeocin (Zeocin, manufactured by Invitrogen Corporation). The pCR-Blunt-TFF2pro/TOP10 was subjected to shaking culture in 50 ml of LB medium containing 30 μg/ml of Zeocin at 37° C. over night, and a plasmid was prepared using a plasmid preparation kit (Concert™ High Purity Midiprep System, manufactured by GIBCO BRL).
The nucleotide sequence of the PCR product cloned to the plasmid pCR-Blunt-TFF2pro was determined. The determined nucleotide sequence was compared with the counterpart of hTFF2 promoter region reported in a gene bank (GenBank accession AB038162). The nucleotide sequence of the MluI-HindIII region cloned in pCR-Blunt-TFF2pro was identical to GenBank accession AB038162 (FIG. 1).
The underlined portions indicate the recognition sequence (ACGCGT) of the restriction enzyme MluI and the recognition sequence (AAGCTT) of the restriction enzyme HindIII. The nucleotide sequences of the MluI-HindIII region are identical between the hTFF2 promoter region reported in GenBank and the PCR product cloned to the plasmid pCR-Blunt-TFF2pro. […]

One may read the melting point as the temperature of the solid-liquid transition. Consider `COc1ccc(CCC2SC(=O)NC2=O)c2ccc(=O)n(C)c12` (stereo not shown) [Example 2, 5-[2-(8-methoxy-1-methyl-2-oxo-1,2-dihydroquinolin-5-yl)ethyl]thiazolidine-2,4-dione], for which the melting point lay in the range of 222 to 224 °C. Turning to `COc1ccc(CC2SC(=O)NC2=O)c2c1N(Cc1ccc(NC(=O)c3cccnc3)cc1)C(=O)CC2` (stereo not shown) [Example 231], the melting point lay in the range of 233 to 234.2 °C. Still for that read-out and setting: then `CCNC(=O)Nc1ccc(CN2C(=O)CCc3c(CC4SC(=O)NC4=O)ccc(OC)c32)cc1` (stereo not shown) [Example 227], with 195.7 to 196.9 °C; and `CN1C(=O)SC(Cc2cc(=O)n(C)c3ccccc23)C1=O` (stereo not shown) [Example 113], with 143 to 145 °C; and `COc1ccc(CC2SC(=O)NC2=O)c2c1NC(=O)CC2` (stereo not shown) [Example 146], with 253 to 256 °C. The same measure, in the same setting: then `O=C1NC(=S)SC1Cc1cccc2c1CCC(=O)N2Cc1ccc(Br)cc1` (stereo not shown) [Example 47, 1-(4-bromobenzyl)-5-(4-oxo-2-thioxothiazolidin-5-ylmethyl)-3,4-dihydro-1H-quinolin-2-one], with 191.3 to 192.1 °C. In the case of `CCC(=O)Nc1ccc(CN2C(=O)CCc3c(CC4SC(=O)NC4=O)ccc(OC)c32)cc1` (stereo not shown) [Example 228], the melting point fell in the range of 198.3 to 200.3 °C. Same read-out and setting: then `O=C1NC(=O)C(Cc2ccc3c(c2)N(Cc2ccc(-c4ccccc4)cc2)C(=O)CC3)S1` (stereo not shown) [Example 18, 5-[1-(Biphenyl-4-ylmethyl)-2-oxo-1,2,3,4-tetrahydroquinolin-7-ylmethyl]thiazolidine-2,4-dione], with 213.2 to 213.7 °C.

Regarding `Cn1c(=O)cc(CC2SC(=O)NC2=O)c2ccccc21` (stereo not shown) [Example 112], the melting point was 246 to 248 °C.

On to `COc1ccc(CC2SC(=O)NC2=O)c2c1N(Cc1ccc(NC(C)=O)cc1)C(=O)CC2` (stereo not shown) [Example 229], for which the melting point lay in the range of 215.2 to 217.8 °C. The same measure, in the same setting: then `CC(=O)N1CCC(CCN2C(=O)CCc3c(CC4SC(=O)NC4=O)cccc32)CC1` (stereo not shown) [Example 614], with 209.5 to 211 °C; and `COc1ccc(CC2SC(=O)NC2=O)c2c1N(CC(=O)O)C(=O)CC2` (stereo not shown) [Example 34, 5-(1-carboxymethyl-8-methoxy-2-oxo-1,2,3,4-tetrahydroquinolin-5-ylmethyl)thiazolidine-2,4-dione], with 251 to 255 °C; and `COc1ccc(C=C2SC(=O)N(C)C2=O)c2ccc(=O)n(C)c12` [Example 10, 5-[1-(8-Methoxy-1-methyl-2-oxo-1,2-dihydroquinolin-5-yl)methylidene]-3-methylthiazolidine-2,4-dione], with 270 °C (dec.). Same read-out and setting: then `COc1ccc(CC2SC(=O)NC2=O)c2c1N(Cc1ccc([N+](=O)[O-])cc1)C(=O)CC2` (stereo not shown) [Example 20, 5-[8-methoxy-1-(4-nitrobenzyl)-2-oxo-1,2,3,4-tetrahydroquinolin-5-ylmethyl]thiazolidine-2,4-dione], with 246.5 to 246.6 °C; and `O=C1NC(=O)C(Cc2cc(=O)[nH]c3ccccc23)S1` (stereo not shown) [Example 111], with 290 to 291 °C. Same read-out and setting: then `O=C1NC(=S)SC1Cc1cccc2c1CCC(=O)N2Cc1ccc(-c2ccccc2)cc1` (stereo not shown) [Example 46, 1-(biphenyl-4-ylmethyl)-5-(4-oxo-2-thioxothiazolidin-5-ylmethyl)-3,4-dihydro-1H-quinolin-2-one], with 186.3 to 187.1 °C; and `O=C1NC(=O)C(Cc2ccc(O)c3c2CCC(=O)N3Cc2ccccc2)S1` (stereo not shown) [Example 31, 5-(1-benzyl-8-hydroxy-2-oxo-1,2,3,4-tetrahydroquinolin-5-ylmethyl)thiazolidine-2,4-dione], with 213.2 to 213.7 °C; and `CCN1C(=O)CCc2c(CC3SC(=O)NC3=O)ccc(OC)c21` (stereo not shown) [Example 147], with 179 to 181 °C. For `COc1ccc(CC2SC(=O)NC2=O)c2c1N(Cc1ccc(NC(=O)c3ccc4ccccc4c3)cc1)C(=O)CC2` (stereo not shown) [Example 22, 5-{8-methoxy-1-[4-(2-naphthoylamino)benzyl]-2-oxo-1,2,3,4-tetrahydroquinolin-5-ylmethyl}thiazolidine-2,4-dione], the “TFF2 Production Promoting Activity” value in data set [1] is “++ (a TFF2 production promoting activity of 1000% or higher at a test compound concentration of 10^−6 M)”. As for `COc1ccc(C2SC(=O)NC2=O)c2ccc(=O)n(C)c12` (stereo not shown) [Example 4, 5-(8-methoxy-1-methyl-2-oxo-1,2-dihydroquinolin-5-yl)thiazolidine-2,4-dione], the melting point is 255 °C (dec.). `COc1ccc(CC2SC(=O)NC2=O)c2c1N(C)C(=O)CC2` (stereo not shown) [Example 145] yielded a melting point of 204 to 208 °C.

As for `COc1ccc(CC2SC(=O)NC2=O)c2c1N(Cc1ccc(C(=O)Nc3ccc(C(C)C)cc3)cc1)C(=O)CC2` (stereo not shown) [Example 27, 5-{1-[4-(4-isopropylphenylaminocarbonyl)benzyl]-8-methoxy-2-oxo-1,2,3,4-tetrahydroquinolin-5-ylmethyl}thiazolidine-2,4-dione], the melting point fell in the range of 243 to 244 °C. Same read-out and setting: the result for `Cl.O=C1NC(=S)SC1Cc1cccc2c1CCC(=O)N2Cc1ccc(Cl)nc1` (stereo not shown) reads 70 to 80 °C; that for `CCCCCOC(=O)Nc1ccc(CN2C(=O)CCc3c(CC4SC(=O)NC4=O)ccc(OC)c32)cc1` (stereo not shown) [Example 23, 5-[1-(4-pentyloxycarbonylaminobenzyl)-8-methoxy-2-oxo-1,2,3,4-tetrahydroquinolin-5-ylmethyl]thiazolidine-2,4-dione], 98 to 102 °C; that for `COC(=O)Nc1ccc(CN2C(=O)CCc3c(CC4SC(=O)NC4=O)ccc(OC)c32)cc1` (stereo not shown) [Example 230], 136.3 to 138.6 °C. `COc1ccc(CC2SC(=O)NC2=O)c2c1N(Cc1ccc(N)cc1)C(=O)CC2` (stereo not shown) [Example 21, 5-[1-(4-aminobenzyl)-8-methoxy-2-oxo-1,2,3,4-tetrahydroquinolin-5-ylmethyl]thiazolidine-2,4-dione] gave a melting point of 174.1 to 174.8 °C. On the same count and under the same terms, the result for `COc1ccc(C=C2SC(=O)NC2=O)c2ccc(=O)n(C)c12` [Example 9, 5-[1-(8-Methoxy-1-methyl-2-oxo-1,2-dihydroquinolin-5-yl)methylidene]thiazolidine-2,4-dione] reads not below 300 °C. Same read-out and setting: then `O=C1NC(=O)C(Cc2cc(=O)n(Cc3ccc(Cl)cc3)c3ccccc23)S1` (stereo not shown) [Example 14, 5-[1-(4-chlorobenzyl)-2-oxo-1,2-dihydroquinolin-4-ylmethyl]thiazolidine-2,4-dione], with 142.1 to 143.7 °C. On to `COc1ccc(CCCC2SC(=O)NC2=O)c2ccc(=O)n(C)c12` (stereo not shown) [Example 3, 5-[3-(8-methoxy-1-methyl-2-oxo-1,2-dihydroquinolin-5-yl)propyl]thiazolidine-2,4-dione], for which the melting point was in the range of 172 to 175 °C.

In turn, `O=C1NC(=O)C(Cc2cc3ccccc3n(Cc3ccc(-c4ccccc4)cc3)c2=O)S1` (stereo not shown) [Example 17, 5-[1-(Biphenyl-4-ylmethyl)-2-oxo-1,2-dihydroquinolin-3-ylmethyl]thiazolidine-2,4-dione] registered a melting point of 220.4 to 221.8 °C.

`COC(=O)CN1C(=O)SC(Cc2ccc(OC)c3c2ccc(=O)n3C)C1=O` (stereo not shown) [Example 43, 3-methoxycarbonylmethyl-5-(8-methoxy-1-methyl-2-oxo-1,2-dihydroquinolin-5-ylmethyl)thiazolidine-2,4-dione] came in with a melting point of 182 to 184 °C.
